Laboratory results reported in article PMC3294087 (Journal of Immunology (Baltimore, Md. : 1950), 2012).
Like-named read-outs stand apart in the source and are kept apart here.

How the values were obtained:
[1] = tested on: Staphylococcus aureus (Wood 46 strain; ATCC# 10832); type: cell-based; settings: 30 min at 37°C in PBS, mean of three experiments
[2] = tested on: Candida albicans (Berkhout anamorph, ATCC # MYA-3573); type: cell-based; settings: mean of three experiments
[3] = tested on: Phil82 strain of IAV (A/Phillipines/82(H3N2)); assay: Fluorescent focus assay on A549 cells; type: cell-based, influenza A virus; settings: mean±SEM of 4 experiments

Molecule | S. aureus % of Control Colonies ([1]; 1.25 μg/ml) | S. aureus % of Control Colonies ([1]; 2.5 μg/ml) | S. aureus % of Control Colonies ([1]; 20 μg/ml) | C. albicans % of Control Colonies ([2]; 1.25 μg/ml) | C. albicans % of Control Colonies ([2]; 2.5 μg/ml) | C. albicans % of Control Colonies ([2]; 20 μg/ml) | Neutralizing activity (infectious foci, control = 100%) ([3]; SP-D 5 ng/ml alone) | Neutralizing activity (infectious foci, control = 100%) ([3]; SP-D 10 ng/ml alone)
HNP1: human neutrophil α-defensin | 202±5% | 151±4% | 71±1 % | 81±5 % | 61±4 % | 61±2 % |  | 
SP-D: Recombinant human pulmonary surfactant protein D, dodecameric fraction, produced in CHO-K1 cells (protein, UniProt P35247 21-375, looked up, dodecameric fraction) Pulmonary …: AEMKTYSHRTMPSACTLVMCSSVESGLPGRDGRDGREGPRGEKGDPGLPGAAGQAGMPGQAGPVGPKGDNGSVGEPGPKGDTGPSGPPGPPGVPGPAGREGPLGKQGNIGPQGKPGPKGEAGPKGEVGAPGMQGSAGARGLAGPKGERGVPGERGVPGNTGAAGSAGAMGPQGSPGARGPPGLKGDKGIPGDKGAKGESGLPDVASLRQQVEALQGQVQHLQAAFSQYKKVELFPNGQSVGEKIFKTAGFVKPFTEAQLLCTQAGGQLASPRSAAENAALQQLVVAKNEAAFLSMTDSKTEGKFTYPTGESLVYSNWAPGEPNDDGGSEDCVEIFTNGKWNDRACGEKRLVVCEF |  |  |  |  |  |  | 74±10% | 50±6%
